Source: ChEMBL document CHEMBL4007471, “Assessment of new triplet forming artificial nucleobases as RNA ligands directed towards HCV IRES IIId loop” (Bioorg Med Chem Lett, 2017)

Columns and labels:
[1] = tested on: Internal ribosome entry site (IRES); assay: Selectivity ratio of Kd for 5'-Alexa488-labeled IRES domain 3 loop RNA in presence of 50-fold excess of tRNA at 20 degC to Kd for HCV 5'-Alexa488-labeled IRES domain 3 loop RNA at 20 degC; conditions: Hepacivirus hominis
[2] = target: Internal ribosome entry site (IRES); assay: Binding affinity to HCV 5'-Alexa488-labeled IRES domain 3 loop RNA at 30 degC after overnight incubation by fluorescence assay; set-up: species or system Hepacivirus hominis
[3] = tested on: Internal ribosome entry site (IRES); assay: Selectivity ratio of Kd for HCV IRES 5'Alexa488-GCCGAGGAGUGUUGGGUCGCGCAAGGC-3' RNA at 20 degC to Kd for HCV 5'-Alexa488-labeled IRES domain 3 loop RNA at 20 degC; conditions: Hepacivirus hominis
[4] = tested on: Internal ribosome entry site (IRES); assay: Potency index, ratio of neomycin Kd to compound Kd for HCV 5'-Alexa488-labeled IRES domain 3 loop RNA at 20 degC; conditions: Hepacivirus hominis
[5] = target: Internal ribosome entry site (IRES); assay: Binding affinity to HCV 5'-Alexa488-labeled IRES domain 3 loop RNA at 20 degC after overnight incubation by fluorescence assay; set-up: species or system Hepacivirus hominis
[6] = target: Internal ribosome entry site (IRES); assay: Binding affinity to HCV 5'-Alexa488-labeled IRES domain 3 loop RNA at 5 degC after overnight incubation by fluorescence assay; set-up: species or system Hepacivirus hominis
[7] = target: Internal ribosome entry site (IRES); assay: Binding affinity to HCV 5'-Alexa488-labeled IRES domain 3 loop RNA at 10 degC after overnight incubation by fluorescence assay; set-up: species or system Hepacivirus hominis
[8] = tested on: Internal ribosome entry site (IRES); assay: Binding affinity to HCV 5'-Alexa488-labeled IRES domain 3 loop RNA assessed as change in entropy after overnight incubation by fluorescence assay; conditions: Hepacivirus hominis
[9] = target: Internal ribosome entry site (IRES); assay: Binding affinity to HCV 5'-Alexa488-labeled IRES domain 3 loop RNA at 36 degC after overnight incubation by fluorescence assay; set-up: species or system Hepacivirus hominis
[10] = tested on: Internal ribosome entry site (IRES); assay: Binding affinity to HCV 5'-Alexa488-labeled IRES domain 3 loop RNA assessed as change in enthalpy after overnight incubation by fluorescence assay; conditions: Hepacivirus hominis
[11] = target: Internal ribosome entry site (IRES); assay: Binding affinity to HCV IRES 5'Alexa488-GCCGAGGAGUGUUGGGUCGCGCAAGGC-3' RNA at 20 degC after overnight incubation by fluorescence assay; set-up: species or system Hepacivirus hominis
[12] = target: Internal ribosome entry site (IRES); assay: Binding affinity to HCV 5'-Alexa488-labeled IRES domain 3 loop RNA at 20 degC after overnight incubation in presence of 50-fold excess of tRNA by fluorescence assay; set-up: species or system Hepacivirus hominis
[13] = tested on: Internal ribosome entry site (IRES); assay: Binding affinity to HCV 5'-Alexa488-labeled IRES domain 3 loop RNA assessed as gibbs free energy change after overnight incubation by fluorescence assay; conditions: Hepacivirus hominis
[14] = target: Internal ribosome entry site (IRES); assay: Binding affinity to HCV 5'-Alexa488-labeled IRES domain 3 loop RNA at 15 degC after overnight incubation by fluorescence assay; set-up: species or system Hepacivirus hominis

Structure (SMILES)	Kd ([2]; read-out: Kd) [µM]	Kd ([5]; read-out: Kd) [µM]	Kd ([6]; read-out: Kd) [µM]	Kd ([7]; read-out: Kd) [µM]	TdeltaS [8] [kJ/mol]	Kd ([9]; read-out: Kd) [µM]	deltaH [10] [kJ/mol]	deltaG [13] [kJ/mol]	Kd ([14]; read-out: Kd) [µM]	Kd [5]	Kd [2]	Kd [9]	other results
CC(=O)Nc1nccc(-c2cccc(NC(=O)[C@@H](N)CCCCN)c2)n1	6.2	4.3	3.2	3.4	4.3	8.6	-25.7	-30	3.8	–	–	–	Selectivity ratio [1]: 2.4; Selectivity ratio [3]: > 100; Ratio [4]: 2; Kd ([11]; read-out: Kd): 554 µM; Kd [12]: 10.5 µM
CC(=O)Nc1nccc(-c2cccc(N)c2)n1	–	–	–	–	–	–	–	–	–	Not Active	–	–	–
CC(=O)Nc1nccc(-c2cccc(NC(=O)[C@@H](N)Cc3c[nH]cn3)c2)n1	50.8	19.7	8.6	11.8	-22.6	262	-48.5	-25.9	15	–	–	–	–
CC(=O)Nc1nccc(-c2cccc(NC(=O)[C@@H](N)CN)c2)n1	18.4	10.1	5.1	6.5	-12.5	30.1	-40.3	-27.8	7.6	–	–	–	–
CC(=O)Nc1nccc(-c2cccc(NC(=O)c3cccnc3)c2)n1	–	659	137	290	–	–	–	–	360	–	Not Active	Not Active	–
NCCCC[C@H](N)C(=O)O [LYSINE]	–	–	–	–	–	–	–	–	–	Not Active	–	–	–
CC(=O)Nc1nccc(-c2cccc(NC(=O)CCCCCN)c2)n1	12	11.8	10.8	11.1	24.6	11.4	-3.1	-27.7	11.4	–	–	–	Selectivity ratio [1]: 1.4; Kd [11]: Not Active; Kd [12]: 17.1 µM
NCC1O[C@H](O[C@H]2[C@@H](O)[C@H](O[C@H]3[C@H](O)[C@@H](N)C[C@@H](N)[C@@H]3O[C@H]3O[C@H](CN)[C@@H](O)[C@H](O)[C@H]3N)O[C@@H]2CO)[C@H](N)[C@@H](O)[C@@H]1O (stereo partly specified)	15.6	8.5	5.7	6.1	-11.7	24.1	-39.8	-28.1	6.5	–	–	–	–
CC(=O)Nc1nccc(-c2cccc(NC(=O)CCCCCNC(=O)[C@@H](N)CN)c2)n1	27.7	16.8	9.4	11.6	-7.3	42.6	-33.8	-26.5	14.2	–	–	–	–

Second part, led by results:

Kd ([2]; read-out: Kd) [µM]	Kd ([5]; read-out: Kd) [µM]	Kd ([6]; read-out: Kd) [µM]	Kd ([7]; read-out: Kd) [µM]	TdeltaS [8] [kJ/mol]	Kd ([9]; read-out: Kd) [µM]	deltaH [10] [kJ/mol]	deltaG [13] [kJ/mol]	Kd ([14]; read-out: Kd) [µM]	Kd [5]	Kd [2]	Kd [9]	Structure (SMILES)	other results
–	232	81.5	138	–	–	–	–	158	–	Not Active	Not Active	CC(=O)Nc1nccc(-c2cccc(NC(=O)c3nccnc3N)c2)n1	–
–	863	177	284	–	–	–	–	438	–	Not Active	Not Active	CC(=O)Nc1nccc(-c2cccc(NC(=O)CN)c2)n1	–
–	220	102	122	–	–	–	–	159	–	Not Active	Not Active	CC(=O)Nc1nccc(-c2cccc(NC(=O)CCCN)c2)n1	–
–	–	–	–	–	–	–	–	–	Not Active	Not Active	Not Active	NCCCCCC(=O)NCC(=O)Nc1nc2ccccc2[nH]1	Kd [6]: Not Active; Kd [7]: Not Active; Kd ([11]; read-out: Kd): 41.4 µM; Kd [14]: Not Active
–	–	–	–	–	–	–	–	–	Not Active	Not Active	Not Active	NCCCC(=O)NCC(=O)Nc1nc2ccccc2[nH]1	Kd [6]: Not Active; Kd [7]: Not Active; Kd [14]: Not Active
–	–	–	–	–	–	–	–	–	Not Active	Not Active	Not Active	NCC(=O)NCC(=O)Nc1nc2ccccc2[nH]1	Kd [6]: Not Active; Kd [7]: Not Active; Kd [14]: Not Active
38.4	36.9	29.5	31.5	17.2	32.5	-8	-25.2	34.8	–	–	–	CC(=O)Nc1nccc(-c2cccc(NC(=O)CCCN(C)C)c2)n1	–
